Experimental data published in PMC6943619, “Synthesis and Pharmacological Evaluation of Hybrids Targeting Opioid and Neurokinin Receptors” (Molecules, 2019).

Molecular target: human NK1 (Homo sapiens, UniProt P25103)
Assay: Calcium mobilization functional assay, agonist mode, CHONK1 cells
Assay type: cell-based
Parameters: expressed in transfected cells; host or cells: CHO cells (gift of Prof. T. Costa, ISS, Rome)
Conditions: CHONK1 cells, up to 10 µM

human NK1, sequence (P25103 whole entry): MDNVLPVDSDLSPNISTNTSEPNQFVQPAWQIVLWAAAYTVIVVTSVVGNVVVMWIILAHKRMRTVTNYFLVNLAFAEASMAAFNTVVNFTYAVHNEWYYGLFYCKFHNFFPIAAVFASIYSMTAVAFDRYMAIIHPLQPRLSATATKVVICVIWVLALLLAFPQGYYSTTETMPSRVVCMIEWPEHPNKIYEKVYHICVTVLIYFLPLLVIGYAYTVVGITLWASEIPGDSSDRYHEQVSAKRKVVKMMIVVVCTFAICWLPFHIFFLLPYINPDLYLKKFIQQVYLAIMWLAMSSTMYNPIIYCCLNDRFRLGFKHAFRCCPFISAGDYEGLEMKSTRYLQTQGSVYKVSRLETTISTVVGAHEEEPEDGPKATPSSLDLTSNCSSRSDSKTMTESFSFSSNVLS

C[C@@H](O[C@H]1OCCN(Cc2n[nH]c(=O)[nH]2)[C@H]1c1ccc(F)cc1)c1cc(C(F)(F)F)cc(C(F)(F)F)c1 [aprepitant, reference compound]
effect per se on intracellular calcium levels (tested as an agonist): did not modify
